#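 96-well plates; 48 h exposure; 5 concentrations. Endpoints by linear interpolation between flanking doses. Not reached: highest tested concentration assigned. Here, GI50 denotes the concentration required for 50% inhibition of growth.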 Calls of active or inactive are those of the source. Cut-off read from the data, not from the text of the source: active = GI50 up to about 1.1 µM and inactive = higher.
# Columns and labels:
# Test in all cases: DTP human tumour cell line panel, 48 h
# [1] = system: 786-0
# [2] = system: A549
# [3] = system: ACHN
# [4] = system: CCRF-CEM
# [5] = system: COLO 205
# [6] = system: DMS-114
# [7] = system: DMS-273
# [8] = system: EKVX
# [9] = system: HCC 2998
# [10] = system: HCT-116
# [11] = system: HCT-15
# [12] = system: HL-60
# [13] = system: HOP-62
# [14] = system: HT-29
# [15] = system: IGROV-1
# [16] = system: K562
# [17] = system: KM-20L2
# [18] = system: KM12
# [19] = system: LOX IMVI
# [20] = system: LXFL 529
# [21] = system: M14
# [22] = system: M19-MEL
# [23] = system: MOLT-4
# [24] = system: Malme-3M
# [25] = system: NCI-H23
# [26] = system: NCI-H460
# [27] = system: NCI-H522
# [28] = system: OVCAR-3
# [29] = system: OVCAR-4
# [30] = system: OVCAR-5
# [31] = system: OVCAR-8
# [32] = system: RPMI-8226
# [33] = system: RXF 393
# [34] = system: SF-268
# [35] = system: SF-295
# [36] = system: SF-539
# [37] = system: SK-MEL-28
# [38] = system: SK-MEL-2
# [39] = system: SK-MEL-5
# [40] = system: SN12C
# [41] = system: SNB-19
# [42] = system: SNB-75
# [43] = system: SNB-78
# [44] = system: SR
# [45] = system: SW-620
# [46] = system: TK-10
# [47] = system: U-251
# [48] = system: UACC-62
# [49] = system: UO-31
# [50] = system: XF498
# [51] = system: A498
# [52] = system: CAKI-1
# [53] = system: HOP-92
# [54] = system: NCI-H226
# [55] = system: SK-OV-3
# [56] = system: UACC-257
smiles,measurement,setting,value
O=C1CCC(=O)N1Cc1ccccc1/N=[N+](\[O-])c1ccccc1CN1C(=O)CCC1=O,GI50,[1],> 100 µM (inactive)
same,GI50,[2],> 100 µM (inactive)
same,GI50,[3],> 100 µM (inactive)
same,GI50,[4],> 100 µM (inactive)
same,GI50,[5],> 100 µM (inactive)
same,GI50,[6],> 100 µM (inactive)
same,GI50,[7],> 100 µM (inactive)
same,GI50,[8],> 100 µM (inactive)
same,GI50,[9],> 100 µM (inactive)
same,GI50,[10],> 100 µM (inactive)
same,GI50,[11],> 100 µM
same,GI50,[12],> 100 µM (inactive)
same,GI50,[13],> 100 µM (inactive)
same,GI50,[14],> 100 µM (inactive)
same,GI50,[15],> 100 µM (inactive)
same,GI50,[16],> 100 µM (inactive)
same,GI50,[17],> 100 µM (inactive)
same,GI50,[18],> 100 µM (inactive)
same,GI50,[19],> 100 µM (inactive)
same,GI50,[20],> 100 µM (inactive)
same,GI50,[21],> 100 µM (inactive)
same,GI50,[22],> 100 µM (inactive)
same,GI50,[23],> 100 µM (inactive)
same,GI50,[24],> 100 µM (inactive)
same,GI50,[25],> 100 µM (inactive)
same,GI50,[26],> 100 µM (inactive)
same,GI50,[27],> 100 µM (inactive)
same,GI50,[28],> 100 µM (inactive)
same,GI50,[29],> 100 µM (inactive)
same,GI50,[30],> 100 µM (inactive)
same,GI50,[31],> 100 µM (inactive)
same,GI50,[32],> 100 µM (inactive)
same,GI50,[33],> 100 µM (inactive)
same,GI50,[34],> 100 µM (inactive)
same,GI50,[35],> 100 µM (inactive)
same,GI50,[36],> 100 µM (inactive)
same,GI50,[37],> 100 µM (inactive)
same,GI50,[38],> 100 µM (inactive)
same,GI50,[39],> 100 µM (inactive)
same,GI50,[40],> 100 µM (inactive)
same,GI50,[41],> 100 µM (inactive)
same,GI50,[42],10.2 µM (inactive)
same,GI50,[43],> 100 µM (inactive)
same,GI50,[44],> 100 µM (inactive)
same,GI50,[45],> 100 µM (inactive)
same,GI50,[46],> 100 µM (inactive)
same,GI50,[47],> 100 µM (inactive)
same,GI50,[48],> 100 µM (inactive)
same,GI50,[49],> 100 µM (inactive)
same,GI50,[50],> 100 µM (inactive)
CCOC(=O)/C(=C/c1ccccc1)N(CC)CC,GI50,[1],> 100 µM (inactive)
same,GI50,[51],> 100 µM (inactive)
same,GI50,[2],> 100 µM (inactive)
same,GI50,[3],> 100 µM (inactive)
same,GI50,[52],> 100 µM (inactive)
same,GI50,[4],62.2 µM (inactive)
same,GI50,[5],> 100 µM (inactive)
same,GI50,[6],> 100 µM (inactive)
same,GI50,[7],> 100 µM (inactive)
same,GI50,[8],> 100 µM (inactive)
same,GI50,[9],> 100 µM (inactive)
same,GI50,[10],> 100 µM (inactive)
same,GI50,[11],> 100 µM
same,GI50,[12],> 100 µM (inactive)
same,GI50,[13],> 100 µM (inactive)
same,GI50,[53],> 100 µM (inactive)
same,GI50,[14],> 100 µM (inactive)
same,GI50,[15],> 100 µM (inactive)
same,GI50,[16],> 100 µM (inactive)
same,GI50,[17],> 100 µM (inactive)
same,GI50,[18],> 100 µM (inactive)
same,GI50,[19],94.4 µM (inactive)
same,GI50,[20],> 100 µM (inactive)
same,GI50,[21],> 100 µM (inactive)
same,GI50,[22],> 100 µM (inactive)
same,GI50,[23],> 100 µM (inactive)
same,GI50,[24],> 100 µM (inactive)
same,GI50,[54],> 100 µM (inactive)
same,GI50,[25],> 100 µM (inactive)
same,GI50,[26],> 100 µM (inactive)
same,GI50,[27],> 100 µM (inactive)
same,GI50,[28],> 100 µM (inactive)
same,GI50,[29],> 100 µM (inactive)
same,GI50,[30],> 100 µM (inactive)
same,GI50,[31],> 100 µM (inactive)
same,GI50,[32],> 100 µM (inactive)
same,GI50,[34],> 100 µM (inactive)
same,GI50,[35],> 100 µM (inactive)
same,GI50,[36],> 100 µM (inactive)
same,GI50,[37],> 100 µM (inactive)
same,GI50,[38],> 100 µM (inactive)
same,GI50,[39],> 100 µM (inactive)
same,GI50,[55],> 100 µM (inactive)
same,GI50,[40],> 100 µM (inactive)
same,GI50,[41],> 100 µM (inactive)
same,GI50,[43],> 100 µM (inactive)
same,GI50,[44],> 100 µM (inactive)
same,GI50,[45],> 100 µM (inactive)
same,GI50,[46],> 100 µM (inactive)
same,GI50,[47],> 100 µM (inactive)
same,GI50,[56],> 100 µM (inactive)
same,GI50,[48],> 100 µM (inactive)
same,GI50,[49],> 100 µM (inactive)
same,GI50,[50],> 100 µM (inactive)
